How the values were obtained:
[1] = test system: PDGG-AA; experiment: PDGG-AA release from TA-VSMCs; format: cell-based; details: 0.2 mM
[2] = test system: c-fos; experiment: c-fos mRNA in N-VSMC (RNA blot); format: cell-based, chicken
Method: FIGS. 3A, 3B and 3C are RNA blot analyses of c-fos and c-myb mRNA isolated from N-VSMC cultures. Cultures were incubated in the absence and presence of 200μM H[cys] for 0, (lane 1); 15 min, (lane 2); 30 min, (lane 3); 45 min, (lane 4) and 60 min, (lane 5); and analyzed for c-fos expression. In FIG. 3B, the time course of c-myb MRNA induction in the presence of 200μM H[cys] for 0 h, (lane 1); 8 h, (lane 2); 16 h, (lane 3); 24 h, (lane 4). The c-fos transcripts were analyzed by northern blot and normalized to β actin expression. The amount of c-myb mRNA levels were normalized to estrogen receptor (ER) transcripts as determined by RT-PCR. […] The amount of c-myb mRNA levels were normalized to estrogen receptor (ER) transcripts as determined by RT-PCR. The amount of specific radiolabeling in the autoradiograph was quantified by scanning densitometry. The size of the c-Myb protein is 75 kilodaltons. The 75 kilodalton band is defined as c-Myb because immunoprecipitation of this protein was not detected in the presence of synthetic polypeptide [[…] encoded by sequences 1080-1133].
RNA Blot Analysis: Total RNA was isolated from VSMC derived from thoracic and abdominal aorta by homogenization, and lysis with guanidinium isothiocyanate was followed by phenol-chloroform extraction. […]

[3] = test system: VSMC isolated from abdominal; experiment: [3H]thymidine incorporation (DNA synthesis) in abdominal aorta VSMC; format: cell-based, chicken; details: abdominal VSMC compared with N-VSMC
Description: (§1) Smooth Muscle Culture: The thoracic (N) and abdominal (M) aorta of normal 16 and 18-day embryos were cleaned of fat, and the intima-media was isolated from the adventitia. The intima-media was enzymatically dispersed into a single cell suspensions by a combination of collagenase and elastase followed by trypsin. VSMC were placed in primary culture at a constant density of 2×10^4 cells/cm^2 in multiwell plates or 100 mm culture plates in Medium 199 supplemented with 10% fetal bovine serum (FMS) and 2 mM glutamine, in an atmosphere of 95% air: 5% Co2 at 37° C. Primary cultures were grown for 7 days before they were seeded into first passage at the same cell density and grown to confluence. Experiments were carried out between passages 3-6. Experimental conditions for all cells included 48 h in Medium 199 supplemented with 1% FBS prior to initiating and experiment.
(§2) DNA Synthesis: Growth factors were added directly to quiescent VSMCs in Medium 199 as described above. The cells were pulsed between 4-6 h with a final concentration of 2-5 μCi/ml [^3H]thymidine added at the times and for the periods indicated in the figure legends. The cells were washed, and the incorporation of [^3H]thymidine into acid insoluble material was determined as previously described. Den-Heijer, M. et al. (1996), Hyperhomocystinemia as a risk factor for deep-vein thrombosis. N. Eng. J. Med. 334(12):759-762.

[4] = test system: rat liver cells; details: cited from earlier work
[5] = test system: N-VSMC; experiment: [3H]thymidine incorporation (DNA synthesis) in N-VSMC cultures; format: cell-based, chicken
Method: FIG. 1 is a graph illustrating homocysteine's effects on the growth of VSMC cultures. Confluent N-VSMC cultures were growth arrested by incubating cells with M199 medium containing 1 μg/ml BSA for 48 h, exposed to various concentrations of H[cys] (0.01-4000μM) for 30 h, pulse labeled for 6 h with 2 μCi/ml [^3H]-thymidine, and cell monolayers were washed twice with cold (0° C.) 10% trichloroacetic acid (TCA). The amount of [^3H]-thymidine incorporation was determined by scintillation spectrophotometry. Results are shown as the means of ±S.D.
FIGS. 2A-2C are graphs illustrating the effects of glutamate, homocysteic acid and NMDA on DNA synthesis in N-VSMC. N-VSMC were cultured and serum-deprived as described in “Experimental Procedures.” Cultures were treated with various concentrations of homocysteic acid (2A), NMDA (2B), or L-glutamate (2C) for 30 and pulsed 6h with [^3H] thymidine. All values are expressed as ±S.D. of six independent experiments completed in quadruplicate.
as §1, §2

[6] = neural crest derived smooth muscle cells

N[C@@H](CCS)C(=O)O [homocysteine]
delay in PDGG-AA release [1]: not observed | c-fos mRNA transcripts induced ([2]; 200 μM homocysteine): 15 fold | c-fos induction [2, 6]: induced | effect on DNA synthesis [3]: did not respond similarly | protein bound H[cys] in the microsomal fraction [4]: 50% | DNA synthesis increased ([5]; N-VSMC incubated with 0.01 to 4000 μM homocysteine, dose dependent and saturable): 12 fold | DNA synthesis at high concentration ([5]; homocysteine concentrations above 300 μM): completely suppressed | DNA synthesis increased [5, 6]: 5 fold
